Test results from patent US9834514B2, “Antibiotic sensitivity-restoring and photosensitive agents” (New Mexico Tech Research Foundation, priority 2015, dated 2017).
≈ marks a conversion by molar mass, not a printed value.

Experiments:
[1] = tested on: S. aureus (ATCC 29213); experiment: MIC against drug sensitive S. aureus; assay type: cell-based; conditions: Staphylococcus aureus, ATCC29213; ATCC 29213; read-out: S. aureus MIC
[2] = tested on: Klebsiella pneumoniae (CRE, ATCC BAA-1705); experiment: Cell killing of CRE with compounds in presence or absence of PMB (CFU/mL); assay type: cell-based; conditions: for PMB + Comp: PMB @ 0.2 μg/mL + Comp @ 20 µM; for Comp @ 20 µM: compound alone
Experimental: Klebsiella pneumoniae (CRE, ATCC BAA-1705) was grown in TSB overnight at 37° C. and diluted to about 5×10^5 CFU/mL using a McFarland Latex Turbidity standard (0.5). One mL of the cell suspension was transferred to a glass culture test tube. PMB was added to the cell suspension resulting in a final concentration of 200 μg/mL of PMB. The cell suspension was incubated at 37° C. on a rotary shaking incubator at 150 rpm for 4 hours. Compounds 1, 7, 8, 9, 10, and 11 were added to the cell suspension, resulting in a concentration of 20 μM for each of the compounds. The cell suspensions containing the compounds were incubated at 37° C. on a rotary shaking incubator at 150 rpm for 4 hours. Each sample was diluted tenfold to a 10^−5 dilution. Ten 10 microliters of each dilution from each sample was dripped onto a TSA plate and allowed to streak down the plate. The agar plates were incubated at 37° C. for 18-24 hours. Colony counts were performed and CFU/mL values were calculated.
The MICs of PMB and compounds 7-11 were determined against Klebsiella pneumoniae (CRE, ATCC BAA-1705). […] After the incubation with PMB, each of the compounds was added at a concentration of 20 μM, and the samples were incubated for an additional 18 hours. A sample was taken and diluted ten-fold in media. Ten microliters of each dilution was then drip-streaked onto an agar plate and incubated overnight at 37° C. Colony counts were then performed and the concentrations of cells (CFU/mL) were calculated.

[3] = tested on: VRE; experiment: MIC against VRE; assay type: cell-based, Enterococcus faecalis; conditions: Enterococcus, TABLE 23, read-out: VRE MIC
Experimental: In a 12×75 mm borosilicate glass culture tube, 1 mL of cell suspension was added. Then, compound 7 was added to the cells, and the samples were mixed using a vortex mixer. […] The samples were incubated overnight at 37° C. on a rotary shaking incubator at 100 rpm.

[4] = tested on: HeLa cells; experiment: Toxicity (IC50) on HeLa cells; assay type: cell-based, human; conditions: for IC50: Homo sapiens, cancerous cervical epithelium HeLa cells
Experimental: The toxicities of the compounds of the invention were determined for human cancerous cervical epithelium HeLa and normal lung fibroblast WI38 cells. The toxicities of EPIs INF-55 and INF-55Cl were quantified as controls. […] TABLE 2 compares the toxicity of compounds 7-11 on HeLa cells and normal WI38 cells.

[5] = tested on: MRSA; experiment: Resensitization to antibiotics (log reduction, TABLE 29); assay type: cell-based, S. aureus
[6] = tested on: A. baumannii; experiment: as above; assay type: cell-based; conditions: compound 5 μM; PME (0.2 μg/mL)
[7] = tested on: drug-resistant bacteria; experiment: Summary of synergistic activities with antibiotic families (TABLE 45); assay type: cell-based; conditions: for Synergy with Oxacillin (β-lactama): *indicated ampicillin, dicloxicillin and Penicillin G
Excerpt: TABLE 45 summarizes the synergistic activities of the seven classes of clinically used antibiotics and compounds of the invention against a variety of different drug-resistant bacteria.

[8] = tested on: CRE; experiment: Resensitization to antibiotics (log reduction, TABLE 29); assay type: cell-based; conditions: compound 20 μM
Experimental: In a 96-well microtiter plate, two-fold dilutions were made of each drug (starting with 100 μM) in 100 μL of a cell suspension in TSB. The resulting samples were incubated overnight at 37° C. on a rotary shaking incubator at 100 rpm. The samples were then visually inspected for turbidity. A 20% well volume of MTT reagent (5 mg/mL) was subsequently added, and the samples were incubated for about 20 minutes.

[9] = tested on: MRSA (ATCC BAA-44); experiment: Synergy with oxacillin and norfloxacin and other antibiotics (colony counts); assay type: cell-based, S. aureus; conditions: for Orders of Magnitude with Norfloxacin / Orders of Magnitude with Oxacillin: increase in ability to kill MRSA versus drug or compound alone
Experimental: The synergy of compounds 1 and 7-11 with oxacillin and norfloxacin was tested against MRSA (ATCC BAA-44). An overnight culture of MRSA was first diluted to about 5×10^5 CFU/mL in TSB. Then, 1 mL of the diluted broth suspension was added to a borosilicate glass culture tube. An appropriate volume of a compound or an antibiotic drug stock was added to the broth suspension and mixed using a vortex mixer. Then an appropriate volume of an antibiotic was added to test synergy with compounds 7-11. The samples were subsequently mixed using a vortex mixer, and the samples were incubated for 18 hours at 37° C. on a rotary shaking incubator. After 18 hours, the test cultures were diluted ten-fold, 10 μL of each dilution was drip-streaked onto a TSA plate, and the samples were incubated for 18 hours at 37° C. Colony counts were then performed and the CFU/mL values were calculated.
TABLE 21 details the MIC values identified in the MRSA assay of compounds 1, 7, 8, 9, 10, 11, various antibiotics, and light.

[10] = (½) MIC compound + (¼) MIC Norfloxacin
[11] = (½) MIC compound + (⅓) MIC Oxacillin
[12] = (⅛) MIC compound + (1/7) MIC Norfloxacin
[13] = (⅛) MIC compound + (¼) MIC Oxacillin
[14] = compared to compound alone, FIGS. 34, 39, 41

SMILES	MIC [1] [µM]	PMB + Comp [2]	Comp @ 20 µM [2]	MIC [3] [µM]	IC50 [4] [µM]	Log Reduction [6]	Synergy with Polymyxin B (Polypeptides) ([7]; A. baumannii ATCC 15151)	Synergy with Polymyxin E (Polypeptides) ([7]; A. baumannii ATCC 15151)	Synergy with Polymyxin B (Polypeptides) ([7]; CRE ATCC 1705)	Synergy with Polymyxin E (Polypeptides) ([7]; CRE ATCC 1705)	Synergy with Polymyxin B (Polypeptides) ([7]; CRE ATCC 2340)	Synergy with Polymyxin E (Polypeptides) ([7]; CRE ATCC 2340)	Synergy with Polymyxin B (Polypeptides) ([7]; CRE ATCC 2341)	Synergy with Polymyxin E (Polypeptides) ([7]; CRE ATCC 2341)	Synergy with Polymyxin B (Polypeptides) ([7]; CRE ATCC 2342)	Synergy with Polymyxin E (Polypeptides) ([7]; CRE ATCC 2342)	Synergy with Norfioxacin (Fluoroquinolones) ([7]; MRSA ATCC BAA-44)	Synergy with Oxacillin (β-lactama) ([7]; MRSA ATCC BAA-44)	Synergy with Polymyxin B (Polypeptides) ([7]; P. aeruginosa ATCC 27853)	Synergy with Polymyxin E (Polypeptides) ([7]; P. aeruginosa ATCC 27853)	other results
Clc1ccc(/N=N/c2c[nH]c3ccccc23)cc1 [Compound 9]	16 (≈ 4.09 µg/mL)	None Detected	6.4 × 10^8 CFU/mL	> 200	34.4	8	Synergy	Synergy	Synergy	Synergy	Synergy	Synergy	Synergy	Synergy	Synergy	Synergy	Synergy	Synergy*	Synergy	Synergy	toxicity to HeLa versus normal WI38 cells ([4]; comparison of TABLE 2 values): killed cancerous HeLa cells at concentrations that were not toxic to normal WI38 cells; Log Reduction ([5]; compound 8 μM, Norfloxacin (25 μg/mL)): 2-3; Synergy with Norfioxacin (Fluoroquinolones) ([7]; VRE ATCC 51299): Synergy; Synergy with Tetracycline (Tetracyclines) ([7]; VRE ATCC 51299): Synergy; Synergy with Vancomycin (Glycopeptides) ([7]; VRE ATCC 51299): Synergy; Log Reduction ([8]; PMB (0.2 μg/mL)): 6; Log Reduction ([8]; PME (0.2 μg/mL)): 6; % Kill [9, 10]: 99%; Surviving MRSA [9, 10]: 1.00 × 10^−2; % Kill [9, 11]: 99%; Surviving MRSA [9, 11]: 1.00 × 10^−2; MICs greater than cells treated with compound alone, with norfloxacin ([9]; FIGS. 35-38): two-fold; MICs greater than cells treated with compound alone, with oxacillin ([9]; FIGS. 35-38): two-fold; Orders of Magnitude with Norfloxacin [9]: >2; Orders of Magnitude with Oxacillin [9]: >2
Clc1ccc(Oc2c(-c3ccc(Cl)cc3)[nH]c3ccc(Cl)cc23)cc1 [Compound 11]	32 to 64 (≈ 12.4 to 24.9 µg/mL)	None Detected	7.8 × 10^8 CFU/mL	20 (≈ 7.77 µg/mL)	25.9	8	Synergy	Synergy	Synergy	Synergy	Synergy	Synergy	Synergy	Synergy	Synergy	Synergy	Synergy	Synergy*	Synergy	Synergy	Log Reduction ([5]; compound 0.5 μM, Norfloxacin (20 μg/mL)): 8; Log Reduction ([5]; compound 0.5 μM, Oxacillin (100 μg/mL)): 5; Synergy with Norfioxacin (Fluoroquinolones) ([7]; VRE ATCC 51299): Synergy; Synergy with Tetracycline (Tetracyclines) ([7]; VRE ATCC 51299): Synergy; Synergy with Vancomycin (Glycopeptides) ([7]; VRE ATCC 51299): Synergy; Log Reduction ([8]; PME (0.2 μg/mL)): 6; % Kill [9, 12]: 99.99%; Surviving MRSA [9, 12]: 1.00 × 10^−5; % Kill [9, 13]: 99.99%; Surviving MRSA [9, 13]: 1.00 × 10^−5; Synergy with Norfloxacin ([9]; TABLE 6): 8-log reduction; Synergy with Oxacillin ([9]; TABLE 6): 5-log reduction; log reduction in the number of surviving cells (CFU/mL), co-treatment with norfloxacin [9, 14]: ~8 log; log reduction in the number of surviving cells (CFU/mL), co-treatment with oxacillin [9, 14]: ~5 log; killing of MRSA in conjunction with oxacillin ([9]; compound 11 at 1 μM, FIG. 40): more effective at killing MRSA when used in conjunction with oxacillin; Orders of Magnitude with Norfloxacin [9]: 5; Orders of Magnitude with Oxacillin [9]: 5
